According to ChEMBL document CHEMBL1150655, “Tupuseleiamides and basiliskamides, new acyldipeptides and antifungal polyketides produced in culture by a Bacillus laterosporus isolate obtained from a tropical marine habitat” (J Nat Prod, 2002):
Values after ≈ are worked out from the molar mass of the structure shown.

Assays:
[1] = Cytotoxicity against human diploid fibroblast cells assessed as cytopathic effect at 12.5 ug/ml; type: cell-based
[2] = Cytotoxicity against human diploid fibroblast cells at 100 ug/ml; type: cell-based
Candida albicans = assay: Antimicrobial activity against Candida albicans by standard agar dilution method; type: functional
Aspergillus fumigatus = assay: Antimicrobial activity against Aspergillus fumigatus by standard agar dilution method; type: functional

What does the source list for `C[C@@H]1[C@H](O)[C@@H](C)/C=C/C=C/C=C/C=C/C=C/C=C/C=C/[C@H](O[C@@H]2O[C@H](C)[C@@H](O)[C@H](N)[C@@H]2O)C[C@@H]2O[C@](O)(C[C@@H](O)C[C@@H](O)[C@H](O)CC[C@@H](O)C[C@@H](O)CC(=O)O[C@H]1C)C[C@H](O)[C@H]2C(=O)O` [AMPHOTERICIN B]?
Activity [1]: Toxic; Activity [2]: Toxic

With `CC[C@@H](C)[C@H](O)[C@H](C)[C@@H](C/C=C/C=C\C(N)=O)OC(=O)/C=C/c1ccccc1` [BASILISKAMIDE B] as the molecule, how does the MIC (Candida albicans) read?
Its MIC is 3.1 µg/mL (≈ 8.04 µM).

And the MIC (Aspergillus fumigatus)?
The MIC was 5 µg/mL (≈ 13 µM).

With `CC[C@@H](C)[C@H](OC(=O)/C=C/c1ccccc1)[C@H](C)[C@H](O)C/C=C/C=C\C(N)=O` [BASILISKAMIDE A] as the molecule, how does the MIC (Candida albicans) read?
The MIC was 1 µg/mL (≈ 2.59 µM).

And the MIC (Aspergillus fumigatus)?
The MIC was 2.5 µg/mL (≈ 6.49 µM).
